Reference: PubChem BioAssay (NCI)
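Following 48 hours of exposure in 96-well plates, responses at five concentrations were used to interpolate endpoints linearly. GI50 marks 50% less growth. TGI marks complete inhibition of growth.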

Key:
Experiment in all cases: inhibition of tumour cell growth, NCI panel, 48 h
786-0 renal = test system: 786-0 renal
A498 renal = test system: A498 renal
A549 NSCLC = test system: A549 NSCLC
ACHN renal = test system: ACHN renal
CAKI-1 renal = test system: CAKI-1 renal
CCRF-CEM leukemia = test system: CCRF-CEM leukemia
COLO 205 colon = test system: COLO 205 colon
DU-145 prostate = test system: DU-145 prostate
EKVX NSCLC = test system: EKVX NSCLC
HCC-2998 colon = test system: HCC-2998 colon
HCT-116 colon = test system: HCT-116 colon
HCT-15 colon = test system: HCT-15 colon
HL-60(TB) leukemia = test system: HL-60(TB) leukemia
HOP-62 NSCLC = test system: HOP-62 NSCLC
HOP-92 NSCLC = test system: HOP-92 NSCLC
HS 578T breast = test system: HS 578T breast
HT29 colon = test system: HT29 colon
IGROV1 ovarian = test system: IGROV1 ovarian
KM12 colon = test system: KM12 colon
M14 melanoma = test system: M14 melanoma
MCF7 breast = test system: MCF7 breast
MDA-MB-231 breast = test system: MDA-MB-231 breast
MDA-MB-435 = test system: MDA-MB-435
MOLT-4 leukemia = test system: MOLT-4 leukemia
NCI-H23 lung = test system: NCI-H23 lung
NCI-H460 lung = test system: NCI-H460 lung
NCI/ADR-RES ovarian = test system: NCI/ADR-RES ovarian
OVCAR-3 ovarian = test system: OVCAR-3 ovarian
OVCAR-4 ovarian = test system: OVCAR-4 ovarian
OVCAR-5 ovarian = test system: OVCAR-5 ovarian
OVCAR-8 ovarian = test system: OVCAR-8 ovarian
PC-3 prostate = test system: PC-3 prostate
RXF 393 renal = test system: RXF 393 renal
SF-268 CNS = test system: SF-268 CNS
SF-295 CNS = test system: SF-295 CNS
SK-MEL-2 melanoma = test system: SK-MEL-2 melanoma
SK-MEL-28 melanoma = test system: SK-MEL-28 melanoma
SK-MEL-5 melanoma = test system: SK-MEL-5 melanoma
SK-OV-3 ovarian = test system: SK-OV-3 ovarian
SN12C renal = test system: SN12C renal
SNB-19 CNS = test system: SNB-19 CNS
SNB-75 CNS = test system: SNB-75 CNS
SW-620 colon = test system: SW-620 colon
T-47D breast = test system: T-47D breast
TK-10 renal = test system: TK-10 renal
U251 CNS = test system: U251 CNS
UACC-257 melanoma = test system: UACC-257 melanoma
UACC-62 melanoma = test system: UACC-62 melanoma
UO-31 renal = test system: UO-31 renal

COc1cc(NC(C)CCCN)c2ncccc2c1Sc1ccc(Cl)cc1 (stereo not drawn)
GI50 (786-0 renal): 1890 nM | TGI (786-0 renal): 3570 nM | GI50 (A498 renal): 3650 nM | TGI (A498 renal): 16200 nM | GI50 (A549 NSCLC): 1650 nM | TGI (A549 NSCLC): 3010 nM | GI50 (ACHN renal): 1790 nM | TGI (ACHN renal): 3220 nM | GI50 (CAKI-1 renal): 3130 nM | TGI (CAKI-1 renal): 12300 nM | GI50 (CCRF-CEM leukemia): 1770 nM | TGI (CCRF-CEM leukemia): 4960 nM | GI50 (COLO 205 colon): 1670 nM | TGI (COLO 205 colon): 3030 nM | GI50 (DU-145 prostate): 1850 nM | TGI (DU-145 prostate): 3320 nM | GI50 (EKVX NSCLC): 2140 nM | TGI (EKVX NSCLC): 4720 nM | GI50 (HCC-2998 colon): 1750 nM | TGI (HCC-2998 colon): 3170 nM | GI50 (HCT-116 colon): 1700 nM | TGI (HCT-116 colon): 3270 nM | GI50 (HCT-15 colon): 1890 nM | TGI (HCT-15 colon): 3670 nM | GI50 (HL-60(TB) leukemia): 2050 nM | TGI (HL-60(TB) leukemia): 3880 nM | GI50 (HOP-62 NSCLC): 1750 nM | TGI (HOP-62 NSCLC): 3290 nM | GI50 (HOP-92 NSCLC): 1370 nM | TGI (HOP-92 NSCLC): 3480 nM | GI50 (HS 578T breast): 1670 nM | TGI (HS 578T breast): 3850 nM | GI50 (HT29 colon): 1900 nM | TGI (HT29 colon): 3500 nM | GI50 (IGROV1 ovarian): 2310 nM | TGI (IGROV1 ovarian): 5310 nM | GI50 (KM12 colon): 1770 nM | TGI (KM12 colon): 3270 nM | GI50 (M14 melanoma): 1770 nM | TGI (M14 melanoma): 3340 nM | GI50 (MCF7 breast): 1760 nM | TGI (MCF7 breast): 3190 nM | GI50 (MDA-MB-231 breast): 1420 nM | TGI (MDA-MB-231 breast): 2860 nM | GI50 (MDA-MB-435): 1860 nM | TGI (MDA-MB-435): 3570 nM | GI50 (MOLT-4 leukemia): 1840 nM | TGI (MOLT-4 leukemia): 4160 nM | GI50 (NCI-H23 lung): 1700 nM | TGI (NCI-H23 lung): 3300 nM | GI50 (NCI-H460 lung): 1800 nM | TGI (NCI-H460 lung): 3220 nM | GI50 (NCI/ADR-RES ovarian): 1770 nM | TGI (NCI/ADR-RES ovarian): 3420 nM | GI50 (OVCAR-3 ovarian): 1770 nM | TGI (OVCAR-3 ovarian): 3280 nM | GI50 (OVCAR-4 ovarian): 1720 nM | TGI (OVCAR-4 ovarian): 3100 nM | GI50 (OVCAR-5 ovarian): 1730 nM | TGI (OVCAR-5 ovarian): 3280 nM | GI50 (OVCAR-8 ovarian): 1640 nM | TGI (OVCAR-8 ovarian): 3000 nM | GI50 (PC-3 prostate): 1650 nM | TGI (PC-3 prostate): 3090 nM | GI50 (RXF 393 renal): 1700 nM | TGI (RXF 393 renal): 3070 nM | GI50 (SF-268 CNS): 2430 nM | TGI (SF-268 CNS): 6610 nM | GI50 (SF-295 CNS): 2010 nM | TGI (SF-295 CNS): 4060 nM | GI50 (SK-MEL-2 melanoma): 1850 nM | TGI (SK-MEL-2 melanoma): 3400 nM | GI50 (SK-MEL-28 melanoma): 1830 nM | TGI (SK-MEL-28 melanoma): 3280 nM | GI50 (SK-MEL-5 melanoma): 1720 nM | TGI (SK-MEL-5 melanoma): 3090 nM | GI50 (SK-OV-3 ovarian): 1650 nM | TGI (SK-OV-3 ovarian): 3080 nM | GI50 (SN12C renal): 1620 nM | TGI (SN12C renal): 3060 nM | GI50 (SNB-19 CNS): 1800 nM | TGI (SNB-19 CNS): 3460 nM | GI50 (SNB-75 CNS): 1700 nM | TGI (SNB-75 CNS): 3420 nM | GI50 (SW-620 colon): 1610 nM | TGI (SW-620 colon): 3080 nM | GI50 (T-47D breast): 1770 nM | TGI (T-47D breast): 3340 nM | GI50 (TK-10 renal): 2010 nM | TGI (TK-10 renal): 3500 nM | GI50 (U251 CNS): 1510 nM | TGI (U251 CNS): 2830 nM | GI50 (UACC-257 melanoma): 1630 nM | TGI (UACC-257 melanoma): 3150 nM | GI50 (UACC-62 melanoma): 1750 nM | TGI (UACC-62 melanoma): 3330 nM | GI50 (UO-31 renal): 1590 nM | TGI (UO-31 renal): 3190 nM
